Where “and” joins values, the source holds several entries; their conditions need not be identical. Equal entries are not always repeated.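 Following 48 hours of exposure in 96-well plates, responses at five concentrations were used to interpolate endpoints linearly. The concentration for 50% growth inhibition is given as GI50. At the TGI there is no net growth.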
Columns and labels:
Experiment in all cases: DTP human tumour cell line panel, 48 h
CAKI-1 renal = tested on: CAKI-1 renal
COLO 205 colon = tested on: COLO 205 colon
HOP-92 NSCLC = tested on: HOP-92 NSCLC
HS 578T breast = tested on: HS 578T breast
M14 melanoma = tested on: M14 melanoma
OVCAR-3 ovarian = tested on: OVCAR-3 ovarian
PC-3 prostate = tested on: PC-3 prostate
SW-620 colon = tested on: SW-620 colon
TK-10 renal = tested on: TK-10 renal
UACC-257 melanoma = tested on: UACC-257 melanoma

SMILES | GI50 (CAKI-1 renal) | TGI (CAKI-1 renal) | GI50 (COLO 205 colon) [µM] | TGI (COLO 205 colon) | GI50 (HOP-92 NSCLC) [µM] | TGI (HOP-92 NSCLC) [µM] | GI50 (HS 578T breast) [µM] | TGI (HS 578T breast) [µM] | GI50 (M14 melanoma) [µM] | TGI (M14 melanoma) | GI50 (OVCAR-3 ovarian) [µM] | TGI (OVCAR-3 ovarian) | GI50 (PC-3 prostate) [µM] | TGI (PC-3 prostate) [µM] | GI50 (SW-620 colon) | TGI (SW-620 colon) | GI50 (TK-10 renal) [µM] | TGI (TK-10 renal) [µM] | GI50 (UACC-257 melanoma) [µM] | TGI (UACC-257 melanoma) [µM]
Cc1cc(S(=O)(=O)Nc2n[nH]c(-c3ccc(Cl)cc3)c2C#N)c(S)cc1Cl | 30.3 µM | > 100 µM | > 100 | > 100 µM | > 100 | > 100 | 35.8 | > 100 | > 100 | > 100 µM | > 100 | > 100 µM | > 100 | > 100 | > 100 µM | > 100 µM | > 100 | > 100 | > 100 | > 100
Cc1cc(C)c2c(=O)cc(-c3ccc(F)cc3)[nH]c2n1 | – | > 100 µM | – | > 100 µM | – | 90.3 | – | > 100 | – | > 100 µM | 43.5 | > 100 µM | 30.1 | > 100 | – | > 100 µM | – | > 100 | – | > 100
CCCC(c1cc(C(C)(C)C)c(O)cc1C)c1cc(C(C)(C)C)c(O)cc1C | – | 15.3 µM | – | 5.4 µM | – | 22.5 | – | 9.79 | – | 4.51 µM | – | 3.93 µM | – | 8.78 | – | 10.2 µM | – | 9.55 | – | 5.69
Oc1c(CCl)cc(Cl)cc1Cc1cc(Cl)cc(Cc2cc(Cl)cc(CCl)c2O)c1O | 3.37 µM | 17.7 µM | 7.14 | 26.7 µM | 1.91 | 5.81 | 3.02 | 22.6 | 3.54 | 15.7 µM | 3.59 | 15 µM | 2.7 | 10.1 | 3.92 µM | 14.2 µM | 3.9 | 24.1 | 4.66 | 29.9
COc1cc2c3c(n(CCCNC(C)(C)CO)c(=O)c2cc1OC)-c1cc2c(cc1C3=O)OCO2 | 0.446 µM | 23.8 µM | 12.8 | > 67.5 µM | > 25.9 | > 53.1 | 24.5 | 80.7 | 0.754 | 19 µM | 15.1 | 39.8 µM | 2.75 | 16.3 | 0.25 µM | 19 µM | 13 | 38.6 | 19.1 | 49.9
CSc1nc(SC)c2cnn(-c3ccnc4cc(Cl)ccc34)c2n1 | 22.9 µM | > 100 µM | > 100 | > 100 µM | > 63.6 | > 100 | 23.3 | > 100 | 34.8 | > 94.7 µM | 6.87 | > 31.2 µM | > 82.3 | > 100 | > 59.1 µM | > 100 µM | 30.9 | > 89.1 | > 49.7 | > 86.4
CCN1C2=C(SC(=S)C1=C1SC(C(=O)c3ccccc3)=C(C(=O)c3ccccc3)S1)SC(=Nc1ccccc1)C2=O | 48 µM | > 100 µM | > 100 | > 100 µM | 22.5 | > 100 | 2.58 | 72.9 | > 100 | > 100 µM | 30.9 | > 100 µM | 17.6 | > 100 | 1.14 µM | 8.38 µM | 13.3 | > 83.7 | > 100 | > 100
CC(C)c1ccc2c(c1)CCC1C(C)(CN)CCCC21C (stereo unspecified) | – | 2.96 µM | – | 1.43 µM | – | 2.97 | – | 3.57 | – | 3.1 µM | – | 3.26 µM | – | 3.12 | – | 2.9 µM | – | 3.08 | – | 3.03
O=C(NCCCNc1cc(-c2cn(-c3ccccc3)nc2-c2cccc(O)c2)ccn1)c1ccc(F)cc1 | 2.84 µM | 21.2 µM | 1.6 | 3.34 µM | 2.13 | 7.65 | 2.58 | 10.8 | 1.85 | 4.28 µM | 4.03 | 40.7 µM | 2.81 | 15.7 | 2.95 µM | 9.55 µM | 4.47 | 26.3 | 1.8 | 3.87
Clc1ccc(Nc2ncnc3ccccc23)cc1 | 13.1 µM | 61.1 µM | 68.9 | > 100 µM | 13.8 | 73.2 | 37.9 | > 100 | 54.9 | > 100 µM | 34.9 | > 100 µM | 47 | > 100 | > 100 µM | > 100 µM | 2.79 | 31 | 49.9 | > 100
CO[C@@H]1[C@H](N(C)C(=O)c2ccccc2)C[C@@H]2O[C@]1(C)n1c3ccccc3c3c4c(c5c6ccccc6n2c5c31)C(=O)NC4=O | 0.232 µM | 2.66 µM | 0.398 | > 100 µM | 0.173 | > 100 | 0.461 | > 100 | 0.68 | > 100 µM | 6.28 | > 100 µM | 0.562 | > 100 | 0.732 µM | > 100 µM | – | – | > 100 | > 100
NNC(=S)N/N=C/c1ccccn1 | 1.66 µM | > 100 µM | 2.39 | > 100 µM | 0.887 | 8.2 | 3.86 | > 100 | – | – | 3.02 | > 100 µM | 5.62 | > 100 | 3.89 µM | > 100 µM | 1.96 | > 100 | 2.7 | 26.6
Fc1ccc(-c2nn3c(COc4ccccc4Cl)nnc3s2)cc1Oc1ccccc1 | 19.4 µM | 44 µM | 46.4 | > 100 µM | 15.2 | 45.6 | 47.6 | > 100 | 24.4 | 54.7 µM | 22.5 | 52.5 µM | 22.6 | 73.8 | > 100 µM | > 100 µM | 20.5 | 47.1 | > 100 | > 100
O=C(/C=C/c1cccnc1)c1ccccc1 | 7.21 µM | 20.6 µM | 13.9 | 28.8 µM | 4.62 | 19.2 | 10.5 | 32.7 | – | – | 4.25 | 15.7 µM | 11 | 26.5 | 1.92 µM | 4.21 µM | 13.9 | 27.1 | 10.4 | 22.7
CC[C@@]1(O)C(=O)OCc2c1cc1n(c2=O)Cc2cc3c(OC)cccc3nc2-1 | 0.00503 µM and < 0.215 µM | 0.238 µM | – | 5.25 µM | 5.99e-05 | 0.685 | – | > 100 | 0.00323 | 1.61 µM | 0.0434 | 1.21 µM | – | > 100 | 0.0405 µM | 5.65 µM | – | 50 | 0.0646 | 4.25
CC[n+]1c(/C=C/c2ccc(N3CCCC3)cc2)cccc1/C=C/c1ccc(N2CCCC2)cc1 | 0.145 µM | 1.36 µM | 0.164 | 0.341 µM | 0.342 | 1.41 | 0.273 | 1.46 | 0.345 | 1.85 µM | 0.255 | 0.811 µM | 0.194 | 1.23 | 0.287 µM and 0.233 µM | 1.11 µM and 1.03 µM | 0.359 | 2.38 | 0.19 | 0.773
O=C(CSc1nc2ccc([N+](=O)[O-])cc2[nH]1)Nc1ccc([N+](=O)[O-])cc1 | 2.08 µM | 7.67 µM | – | – | 0.293 | 2.22 | 2.31 | 10.2 | 2.73 | 19.9 µM | 2.05 | 10.9 µM | 2.38 | 12.5 | 3.24 µM | 17.6 µM | 3.47 | 11 | 1.75 | 6.71
O=P1(O)c2ccccc2CSCc2ccccc21 | – | > 100 µM | – | > 100 µM | – | > 100 | – | > 100 | – | > 100 µM | – | > 100 µM | – | > 100 | – | > 100 µM | – | > 100 | – | > 100
COc1ccc(C(=O)O[C@@H]2CCN3CC[C@H](C)[C@H]23)cc1 | – | > 100 µM | – | > 100 µM | – | > 100 | – | > 100 | – | > 100 µM | – | > 100 µM | – | > 100 | – | > 100 µM | – | > 100 | – | > 100
Cc1cn2c(/C=N/NC3=NCCN3)c(-c3ccc(Cl)c([N+](=O)[O-])c3)nc2s1 | 1.98 µM | 10 µM | 1.43 | > 50 µM | 0.776 | 2.82 | 1.5 | 3.97 | 1.06 | 2.17 µM | – | – | 1.65 | 4.56 | 0.941 µM | 2.46 µM | 1.05 | 2.7 | 1.6 | 7.24
O=C1NC(=N[C@@H]2C[C@H]2c2ccccc2)S/C1=C\c1ccc2ncccc2c1 | 1.03 µM | 6.46 µM | 0.813 | 2.35 µM | 3.68 | 10.1 | 1.25 | 11.6 | 1.34 | > 25 µM | 3.01 | 10.3 µM | 3.27 | 9.09 | 0.901 µM | > 19.4 µM | 0.899 | 5.58 | 5.17 | 18.9
Cc1cccc2c1NC(=O)[C@@H](NC(=O)[C@H](CCC(F)(F)F)[C@H](CCC(F)(F)F)C(N)=O)N=C2c1cccc(F)c1 | > 100 µM | > 100 µM | > 100 | > 100 µM | 14.4 | 57.1 | 20.4 | 64 | 73.2 | > 100 µM | 33.3 | > 100 µM | 39.5 | > 100 | > 100 µM | > 100 µM | 34.7 | > 100 | 48.6 | > 100
COc1cc2cc(Oc3ccc(NC(=O)Nc4ccc(F)c(C(F)(F)F)c4)cc3)c(C)nc2cc1OCCN1CCOCC1 | 2.06 µM | 9.55 µM | 1.87 | 4.28 µM | 1.31 | 4.96 | 2.12 | 8.9 | 1.53 | 3.31 µM | 2.94 | 13.6 µM | 1.44 | 10.1 | 3.34 µM | 9.86 µM | 4.94 | 25.1 | 1.75 | 5.17
N#CC1(C#N)C2C=CC(C3CC=CC32)C1(C#N)C#N (stereo unspecified) | 8.5 µM | 3.72 µM and 18.5 µM | 5.5 | 4.3 µM and 13.5 µM | – | 14.8 | – | > 50 | 8.72 | 3.74 µM and 16 µM | 6.81 | 5.1 µM and 14.5 µM | – | 16.2 | 2.64 µM | 5.03 µM and 22.6 µM | – | 3.61 | – | 21
CCOC(=O)Nc1ccc2c3c(cccc13)-c1ccccc1-2 | 3.29 µM | > 100 µM | 4.25 | > 100 µM | > 100 | > 100 | 3.91 | > 100 | 4.32 | > 100 µM | 2.72 | 8.92 µM | 9.45 | > 100 | 3.92 µM | > 100 µM | > 100 | > 100 | > 100 | > 100
O=C(O)c1ccc(NCn2nc(-c3ccccc3O)oc2=S)cc1O | > 100 µM | > 100 µM | 42.6 | > 100 µM | > 100 | > 100 | > 100 | > 100 | > 100 | > 100 µM | > 100 | > 100 µM | 86.6 | > 100 | 41.9 µM | > 100 µM | > 100 | > 100 | > 100 | > 100
CCOC(=O)Cc1csc(Nc2nc(O)c(C3=c4ccccc4=NC3=O)s2)n1 | 24.3 µM | 57.2 µM | 47.1 | > 100 µM | 22.2 | 52.3 | 47 | > 100 | – | – | 26.9 | 61.5 µM | 30.8 | > 100 | 68.5 µM | > 100 µM | 44.7 | > 100 | 76.9 | > 100

Source: PubChem BioAssay (NCI)
